Marks after values point to notes of the source that are not given here.
Experiments:
Type in all cases: in vivo
[1] = tested on: souris; assay: Hot plate test (56 C), reaction time to thermal pain stimulus; conditions: hydrochloride, 1 h after administration
Excerpt: Cet essai consiste à mesurer le temps d'apparition d'une réaction au stimulus thermoalgique chez la souris.
L'animal est placé sur une plaque métallique portée à une température constante de 56 C. […] Après administration d'un analgésique, le délai d'apparition du réflexe s'allonge: on obtient une élévation de réaction du seuil.
Les composés ont été administrés par voie intrapéritonéale sous forme de chlorhydrate et testés sur les animaux 1 heure après leur administration. Les résultats sont donnés sur quelques exemples dans le tableau 3 suivant un pourcentage de variation du temps de réaction moyen après traitement par rapport à avant traitement.

[2] = tested on: souris; assay: Abdominal cramps test (writhing test), acetic acid i.p.; conditions: for résultats des tests complémentaires (crampes abdominales): other racemic diastereomer compared with the one shown in Tableau 4; for Degré de protection par rapport aux témoins: hydrochloride, 30 min before acetic acid; for Degré de protection par rapport aux témoins à 30´ / Degré de protection par rapport aux témoins à 1 h / Degré de protection par rapport aux témoins à 2 h / Degré de protection par rapport aux témoins à 4 h / Degré de protection par rapport aux témoins à 6 h: 4 mg/kg; for Degré de protection par rapport aux témoins à 30´: reading at 30 min; for Degré de protection par rapport aux témoins à 1 h: reading at 1 h; for Degré de protection par rapport aux témoins à 2 h: reading at 2 h; for Degré de protection par rapport aux témoins à 4 h: reading at 4 h; for Degré de protection par rapport aux témoins à 6 h: reading at 6 h
Protocol: Ce test, également connu sous le nom de WRITHING TEST, utilisé pour la sélection d'analgésiques/antalgiques à effet périphérique, consiste à rechercher une éventuelle protection vis-à-vis des crampes et/ou contorsions abdominales provoquées, chez la souris, par l'injection intrapéritonéale d'acide acétique.
Les composés ont été administrés sous forme de chlorhydrate par voie intrapéritonéale 30 minutes avant l'acide acétique.
Du point de vue cinétique de l'activité antalgique, des tests de crampes abdominales ont été poursuivis dans le temps avec des relevés à 30 minutes, 1 heure, 2 heures, 4 heures et 6 heures.

[3] = tested on: souris; assay: Acute toxicity: mortality after single intraperitoneal administration of increasing doses; conditions: mouse
Protocol: La détermination de la mortalité chez la souris est observée à la suite de l'administration unique par voie intrapéritonéale de doses croissantes de composés à tester.
La dose limite DL100 pour les composés étudiés est supérieure ou égale à 100 mg/kg. Les doses DLO et DL100 des composés 27, 32 et 36 sont rassemblées dans le tableau 2: […]

[4] = tested on: souris; assay: Behavioural despair test (forced swimming, immobility time); conditions: 25 mg/kg, given 30 min before 6 min exposure to water
Excerpt: L'activité antidépressive de composés selon l'invention a été mise en évidence par l'étude du comportement du désespoir chez la souris.
Selon le principe du test, un état dépressif est induit chez la souris en l'obligeant à nager dans un récipient cylindrique étroit d'où elle ne peut s'échapper. Après une période brève d'intense activité, la souris adopte une position immobile caractéristique, facilement identifiable. Les antidépresseurs réduisent ces moments d'immobilité.
Selon le protocole expérimental, les souris sont pré-exposées à l'eau à 25°C pendant 15 minutes, 24 heures avant le test. Pour le test on administre le composé à étudier 30 minutes avant une exposition à l'eau de 6 minutes. Le temps total d'immobilité de la 2e à la 6e minute est mesuré. Les animaux témoins reçoivent le véhicule d'administration du produit de traitement dans les mêmes conditions que les animaux traités.

[5] = tested on: rat; assay: Carrageenan-induced hind paw oedema (plethysmometer); conditions: 15 mg/kg, given 1 h before carrageenan; for % d'inhibitions de l'oedème/témoin à 3 h: 3 h after carrageenan; for % d'inhibitions de l'oedème/témoin à 4 h: 4 h after carrageenan; for % d'inhibitions de l'oedème/témoin à 5 h: 5 h after carrageenan
Excerpt: L'activité anti-inflammatoire de composés selon l'invention a été mise en évidence par l'étude de la réduction d'une réaction inflammatoire induite par injection de carragénine sous l'aponévrose plantaire de la patte postérieure du rat (carragénine Sigma type IV, solution de 1 % dans du soluté isotonique de NaCI).
Le test utilise un appareil de mesure de volume du type "pléthysmométre" constitué d'une structure en U remplie d'eau, une branche du U étant constituée d'un cylindre destiné à recevoir la patte de l'animal (la patte de l'animal est plongée jusqu'à coïncidence de l'articulation tibio-tarsienne avec un repère de base), l'autre branche étant constituée d'une pipette graduée permettant la mesure de volume en mode différentiel.
Selon le protocole expérimental, au temps "t0" on mesure le volume de la patte de l'animal puis on administre le produit de traitement à étudier (les animaux témoins recevant le véhicule d'administration dans les mêmes conditions). Au temps TO + 1 heure, on injecte sous l'aponévrose plantaire de chaque animal 0,05 ml de la solution de carragénine. Le volume de la patte de l'animal est mesuré 3, 4 et 5 heures après injection de la carragénine.
L'activité anti-inflammatoire est calculée en pourcentage de réduction de l'oedème chez les rats traités par rapport aux rats témoins.

[6] = tested on: souris; assay: Abdominal cramps test (writhing test), acetic acid i.p.; conditions: oral administration; for activité par voie orale: 16 mg/kg
[7] = DLO, single dose, intraperitoneal
[8] = DL100, single dose, intraperitoneal

CC(C)(C)c1ccc2c(c1)C(C)(c1ccccc1)CCC2N1CCOCC1 (stereo not drawn) [39 (trans)]
Variation du temps de réaction moyen en % ([1]; 25 mg/kg intraperitoneal): 58% | résultats des tests complémentaires (crampes abdominales) [2]: résultats comparables

CC1(c2ccc(F)cc2)CCC(N2CCN(CCOC(=O)Nc3ccccc3)CC2)c2ccccc21 (stereo not shown) [27.p]
Dose limite 0 en [3, 7]: >200 mg/kg

CC(C)(C)c1ccc2c(c1)C(C)(c1ccccc1)CCC2N1CCN(CCO)CC1 (stereo not shown) [compound 32]
Variation du temps de réaction moyen en % ([1]; 8mg/kg intraperitoneal): 16% | Dose limite 0 en ([3]; in vivo, ip): 25 mg/kg | Dose limite 100 en ([3]; in vivo, ip): 100 mg/kg | Degré de protection par rapport aux témoins ([2]; 8 mg/kg intraperitoneal): 41%

CC1(c2ccc(F)cc2)CCC(N2CCN(CCOC(=O)Nc3ccccc3)CC2)c2ccccc21 (stereo not drawn) [27.p (trans)]
activité antidépressive [4]: activité antidépressive certaine | Degré de protection par rapport aux témoins ([2]; 0,5 mg/kg intraperitoneal): 58% | Degré de protection par rapport aux témoins ([2]; 0,25 mg/kg intraperitoneal): 47% | Degré de protection par rapport aux témoins ([2]; 1 mg/kg intraperitoneal): 70% | Degré de protection par rapport aux témoins ([2]; 2 mg/kg intraperitoneal): 68% | Degré de protection par rapport aux témoins ([2]; 4 mg/kg intraperitoneal): 75% | Degré de protection par rapport aux témoins à 30´ [2]: 84*** | Degré de protection par rapport aux témoins à 1 h [2]: 68*** | Degré de protection par rapport aux témoins à 2 h [2]: 53** | Degré de protection par rapport aux témoins à 4 h [2]: 56*** | Degré de protection par rapport aux témoins à 6 h [2]: 21 | Degré de protection par rapport aux témoins ([2]; 8 mg/kg intraperitoneal): 92% | % d'inhibitions de l'oedème/témoin à 3 h [5]: 40** % | % d'inhibitions de l'oedème/témoin à 4 h [5]: 40*** % | % d'inhibitions de l'oedème/témoin à 5 h [5]: 39** %

CC(C)(C)c1ccc2c(c1)C(C)(c1ccc(F)cc1)CCC2N1CCN(CCOC(=O)Nc2ccccc2)CC1 (stereo not shown) [36.p]
Dose limite 100 en [3, 8]: >200 mg/kg | Dose limite 0 en [3, 7]: 100 mg/kg | activité par voie orale [6]: actifs par voie orale

CC1(c2ccc(F)cc2)CCC(N2CCN(CCOC(=O)Nc3ccccc3)CC2)c2ccccc21 (stereo not drawn) [27.p (cis)]
résultats des tests complémentaires (crampes abdominales) [2]: résultats comparables | % d'inhibitions de l'oedème/témoin à 3 h [5]: 35* % | % d'inhibitions de l'oedème/témoin à 4 h [5]: 39** % | % d'inhibitions de l'oedème/témoin à 5 h [5]: 43** %

CC(C)(C)c1ccc2c(c1)C(C)(c1ccc(F)cc1)CCC2N1CCN(CCOC(=O)Nc2ccccc2)CC1 (stereo not drawn) [36.p (trans)]
Variation du temps de réaction moyen en % ([1]; 25 mg/kg intraperitoneal): 63* % | résultats des tests complémentaires (crampes abdominales) [2]: résultats comparables

CC(=O)OCCN1CCN(C2CCC(C)(c3ccc(F)cc3)c3cc(C(C)(C)C)ccc32)CC1 (stereo not shown) [36.a]
Variation du temps de réaction moyen en % ([1]; 15mg/kg intraperitoneal): 35% | Dose limite 0 en ([3]; in vivo, ip): 100 mg/kg | Dose limite 100 en ([3]; in vivo, ip): >200 mg/kg | activité par voie orale [6]: actifs par voie orale | Degré de protection par rapport aux témoins ([2]; 2 mg/kg intraperitoneal): 52% | Degré de protection par rapport aux témoins ([2]; 4 mg/kg intraperitoneal): 66% | Degré de protection par rapport aux témoins à 30´ [2]: 69*** | Degré de protection par rapport aux témoins à 1 h [2]: 82*** | Degré de protection par rapport aux témoins à 2 h [2]: 60** | Degré de protection par rapport aux témoins à 4 h [2]: 58*** | Degré de protection par rapport aux témoins à 6 h [2]: 38** | Degré de protection par rapport aux témoins ([2]; 8 mg/kg intraperitoneal): 94% | Degré de protection par rapport aux témoins ([2]; 15 mg/kg intraperitoneal): 85%

CC1(c2ccc(F)cc2)CCC(N2CCN(CCO)CC2)c2ccccc21 (stereo not shown) [compound 27]
Variation du temps de réaction moyen en % ([1]; 15mg/kg intraperitoneal): 29% | Dose limite 100 en [3, 8]: 200 mg/kg | Dose limite 0 en [3, 7]: 100 mg/kg | doses limites DLO et DL100 par rapport à l'amino-4-trifluorométhyl-1 tétraline correspondante ([3]; intraperitoneal, compared with the corresponding 4-amino-1-trifluoromethyl tetralin): deux fois | pourcentages de protection ([6]; 60 mg/kg): 86% | Degré de protection par rapport aux témoins ([2]; 4 mg/kg intraperitoneal): 49% | Degré de protection par rapport aux témoins ([2]; 8 mg/kg intraperitoneal): 66% | Degré de protection par rapport aux témoins ([2]; 15 mg/kg intraperitoneal): 92% | pourcentages de protection ([2]; oral administration, 32 mg/kg): 37% | activité par rapport à l'amino-4-trifluoro-méthyl-1 tétraline correspondante ([2]; writhing test, intraperitoneal): activité nettement améliorée

CC(C)(C)c1ccc2c(c1)C(C)(c1ccc(F)cc1)CCC2N1CCN(CCOC(=O)Nc2cccc3ccccc23)CC1 (stereo not shown) [36.n]
Dose limite 0 en [3, 7]: >200 mg/kg

CC(C)(C)c1ccc2c(c1)C(C)(c1ccc(F)cc1)CCC2N1CCN(CCOC(=O)Nc2ccccc2)CC1 (stereo not drawn) [36.p (cis)]
Degré de protection par rapport aux témoins ([2]; 0,5 mg/kg intraperitoneal): 61% | Degré de protection par rapport aux témoins ([2]; 1 mg/kg intraperitoneal): 44% | Degré de protection par rapport aux témoins ([2]; 2 mg/kg intraperitoneal): 61% | Degré de protection par rapport aux témoins ([2]; 4 mg/kg intraperitoneal): 90% | Degré de protection par rapport aux témoins à 30´ [2]: 89*** | Degré de protection par rapport aux témoins à 1 h [2]: 69*** | Degré de protection par rapport aux témoins à 2 h [2]: 68*** | Degré de protection par rapport aux témoins à 4 h [2]: 46** | Degré de protection par rapport aux témoins à 6 h [2]: 24 | Degré de protection par rapport aux témoins ([2]; 8 mg/kg intraperitoneal): 93%

CC(C)(C)c1ccc2c(c1)C(C)(c1ccccc1)CCC2N1CCOCC1 (stereo not drawn) [39 (cis)]
Degré de protection par rapport aux témoins ([2]; 0,5 mg/kg intraperitoneal): 53% | Degré de protection par rapport aux témoins ([2]; 1 mg/kg intraperitoneal): 58% | Degré de protection par rapport aux témoins ([2]; 2 mg/kg intraperitoneal): 54% | Degré de protection par rapport aux témoins ([2]; 4 mg/kg intraperitoneal): 63% | Degré de protection par rapport aux témoins ([2]; 8 mg/kg intraperitoneal): 89%

From patent publication EP0469683A1, “Derivatives of 4-amino-1-methyltetralins, their preparation and their application in therapy” (LABORATOIRES LUCIEN, Société Anonyme :, priority 1990, dated 1992)
